Data taken from patent US20250163022A1, “PARP1 INHIBITORS” (Synnovation Therapeutics, Inc., priority 2021, published 2025).

Target: T1, PARP1 (Homo sapiens, UniProt P09874)
T1 construct: HeLa cells (wide-type with PARP1 gene) were purchased from ATCC; host or cells: HeLa (wild type)
Assay: In-Cell Western measurement of PARylation in PARP1 WT and knockout cells
Assay type: cell-based
Settings: HeLa cells (wide-type with PARP1 gene); hydrogen peroxide-induced PARylation; compounds 30 min, then 10 mM hydrogen peroxide 15 min; read-out: HeLa_WT_IC50
Description: The purpose of this cell-based assay is to measure the potency and selectivity of synthesized PARP inhibitors in suppressing hydrogen peroxide-induced PARylation in cells with and without PARP1 expression. Several cell lines were used in this assay. The human PARP1 knockout HEK-293T cell line (#ab266598) was purchased from Abcam, and its corresponding wide-type control is the human wild-type HEK-293T cell line (#ab255449). The HAP1 isogenic cell lines with and without the PARP1 gene (#HZGHC003943c006) were purchased from Horizon Discovery. HeLa cells (wide-type with PARP1 gene) were purchased from ATCC. Cells were cultured using complete medium containing 10% fetal bovine serum. One day before the assay, cells were seeded in 96-well plates at the density of 20,000 cells per well in 100 uL complete medium. Compounds were dissolved using DMSO and diluted to the working concentrations using complete medium. Cells were pre-treated with compounds for 30 min and then stimulated with 10 mM hydrogen peroxide for 15 min. After stimulation, cells were immediately fixed using ice-cold methanol for 20 min. After fixation, cells were washed using 1×PBST buffer for 3 times, 5 min each time, to eliminate residual methanol. Cells were blocked for 2 h at room temperature in blocking buffer (LI-COR Biosciences, #927-70001). Primary antibody was diluted in diluent buffer (LI-COR Biosciences, #927-75001, 1:200) at 50 uL per well. Cells were incubated with the primary antibody at 4° C. for 18 h. The wells were then washed using 1×PBST for 3 times, 5 min each time. IRDye® 680RD Goat anti-Mouse IgG (H+L) secondary antibody was diluted at 1/2000 using the diluent buffer and added at 100 μL per well. Secondary antibody incubation was for 1 h at room temperature. Cells were then washed using 1×PBST for 3 times, 5 min each time. The signal was detected and analyzed using LI-COR Odyssey DLx Imaging system. Data were collected and further processed using GraphPad Prism for IC50 estimation.

T1 sequence (P09874 whole entry): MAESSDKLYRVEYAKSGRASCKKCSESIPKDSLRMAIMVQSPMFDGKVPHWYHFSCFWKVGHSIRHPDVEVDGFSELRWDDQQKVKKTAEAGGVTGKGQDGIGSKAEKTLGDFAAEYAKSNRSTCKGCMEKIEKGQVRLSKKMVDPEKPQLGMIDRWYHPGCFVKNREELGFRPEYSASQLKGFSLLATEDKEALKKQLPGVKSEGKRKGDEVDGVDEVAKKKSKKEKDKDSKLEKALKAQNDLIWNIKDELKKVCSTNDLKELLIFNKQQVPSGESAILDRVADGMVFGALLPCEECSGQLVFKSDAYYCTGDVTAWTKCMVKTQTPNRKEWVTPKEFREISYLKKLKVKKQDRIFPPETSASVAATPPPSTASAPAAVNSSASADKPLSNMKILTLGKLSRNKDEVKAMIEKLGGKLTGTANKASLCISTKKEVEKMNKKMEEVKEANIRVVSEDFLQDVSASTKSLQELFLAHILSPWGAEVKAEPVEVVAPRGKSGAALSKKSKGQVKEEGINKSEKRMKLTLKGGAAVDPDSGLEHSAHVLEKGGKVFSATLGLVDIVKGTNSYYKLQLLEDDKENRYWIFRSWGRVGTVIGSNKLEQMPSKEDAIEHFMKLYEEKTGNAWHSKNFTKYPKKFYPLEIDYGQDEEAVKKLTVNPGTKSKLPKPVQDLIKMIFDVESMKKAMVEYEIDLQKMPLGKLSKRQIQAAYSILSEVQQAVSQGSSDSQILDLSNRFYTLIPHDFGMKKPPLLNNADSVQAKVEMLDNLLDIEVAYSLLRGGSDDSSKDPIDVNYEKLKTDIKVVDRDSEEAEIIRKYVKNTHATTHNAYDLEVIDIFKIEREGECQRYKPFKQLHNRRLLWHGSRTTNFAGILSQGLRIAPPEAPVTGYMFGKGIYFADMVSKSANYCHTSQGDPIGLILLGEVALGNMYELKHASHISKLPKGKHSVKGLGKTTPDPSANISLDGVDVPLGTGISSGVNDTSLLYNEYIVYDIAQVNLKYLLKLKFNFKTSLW

IC50	Structure (SMILES)
≤ 10 nM	CCN1C(=O)Nc2c(F)c(CN3CCN(c4ccc(C(=O)NOC)nc4C)CC3)cc3ncnc1c23 [Compound I-57, 5-(4-((3-Ethyl-9-fluoro-2-oxo-2,3-dihydro-1H-pyrimido[4,5,6-de]quinazolin-8-yl)methyl)piperazin-1-yl)-N-methoxy-6-methylpicolinamide]
≤ 10 nM	CCN1C(=O)Nc2c(F)c(CN3CCN(c4ccc(C(=O)NC5(CO)CC5)nc4C)CC3)cc3ncnc1c23 [Compound I-59, 5-(4-((3-ethyl-9-fluoro-2-oxo-2,3-dihydro-1H-pyrimido[4,5,6-de]quinazolin-8-yl)methyl)piperazin-1-yl)-N-(1-(hydroxymethyl)cyclopropyl)-6-methylpicolinamide]
≤ 10 nM	CCN1C(=O)Nc2c(F)c(CN3CCN(c4ccc(C(=O)NC5(C#N)CC5)nc4C)CC3)cc3ncnc1c23 [Compound I-62, N-(1-cyanocyclopropyl)-5-(4-((3-ethyl-9-fluoro-2-oxo-2,3-dihydro-1H-pyrimido[4,5,6-de]quinazolin-8-yl)methyl)piperazin-1-yl)-6-methylpicolinamide]
≤ 10 nM	CCN1C(=O)Nc2c(F)c(CN3CCN(c4ccc(C(=O)N[C@H]5CCCOC5)nc4C)CC3)cc3ncnc1c23 [Compound I-63, (S)-5-(4-((3-ethyl-9-fluoro-2-oxo-2,3-dihydro-1H-pyrimido[4,5,6-de]quinazolin-8-yl)methyl)piperazin-1-yl)-6-methyl-N-(tetrahydro-2H-pyran-3-yl)picolinamide]
≤ 10 nM	CCN1C(=O)Nc2c(F)c(CN3CCN(c4ccc(C(=O)N[C@@H]5CCOC5)nc4C)CC3)cc3ncnc1c23 [Compound I-67, (R)-5-(4-((3-ethyl-9-fluoro-2-oxo-2,3-dihydro-1H-pyrimido[4,5,6-de]quinazolin-8-yl)methyl)piperazin-1-yl)-6-methyl-N-(tetrahydrofuran-3-yl)picolinamide]
≤ 10 nM	CCN1C(=O)Nc2c(F)c(CN3CCN(c4ccc(C(=O)N[C@H]5[C@@H]6COC[C@@H]65)nc4C)CC3)cc3ncnc1c23 [Compound I-70, N-((1R,5S,6r)-3-oxabicyclo[3.1.0]hexan-6-yl)-5-(4-((3-ethyl-9-fluoro-2-oxo-2,3-dihydro-1H-pyrimido[4,5,6-de]quinazolin-8-yl)methyl)piperazin-1-yl)-6-methylpicolinamide]
≤ 10 nM	CCN1C(=O)Nc2c(F)c(CN3CCN(c4ccc(C(=O)NC5CN(C)C5)nc4C)CC3)cc3ncnc1c23 [Compound I-71, 5-(4-((3-ethyl-9-fluoro-2-oxo-2,3-dihydro-1H-pyrimido[4,5,6-de]quinazolin-8-yl)methyl)piperazin-1-yl)-6-methyl-N-(1-methylazetidin-3-yl)picolinamide]
≤ 10 nM	CCN1C(=O)Nc2c(F)c(CN3CCN(c4ccc(C(=O)N[C@H]5CCOC5)nc4C)CC3)cc3ncnc1c23 [Compound I-73, (S)-5-(4-((3-ethyl-9-fluoro-2-oxo-2,3-dihydro-1H-pyrimido[4,5,6-de]quinazolin-8-yl)methyl)piperazin-1-yl)-6-methyl-N-(tetrahydrofuran-3-yl)picolinamide]
10 to 100 nM	CCN1C(=O)Nc2c(F)c(CN3CCN(c4ccc(C(=O)N[C@@H]5CCN(C)C5)nc4C)CC3)cc3ncnc1c23 [Compound I-77, (R)-5-(4-((3-ethyl-9-fluoro-2-oxo-2,3-dihydro-1H-pyrimido[4,5,6-de]quinazolin-8-yl)methyl)piperazin-1-yl)-6-methyl-N-(1-methylpyrrolidin-3-yl)picolinamide]
≤ 10 nM	CCN1C(=O)Nc2c(F)c(CN3CCN(c4ccc(C(=O)N[C@H]5CCN(C)C5)nc4C)CC3)cc3ncnc1c23 [Compound I-78, (S)-5-(4-((3-ethyl-9-fluoro-2-oxo-2,3-dihydro-1H-pyrimido[4,5,6-de]quinazolin-8-yl)methyl)piperazin-1-yl)-6-methyl-N-(1-methylpyrrolidin-3-yl)picolinamide]
≤ 10 nM	CCN1C(=O)Nc2c(F)c(CN3CCN(c4ccc(C(=O)NC5CC5)cc4C)CC3)cc3ncnc1c23 [Compound I-82, N-cyclopropyl-4-(4-((3-ethyl-9-fluoro-2-oxo-2,3-dihydro-1H-pyrimido[4,5,6-de]quinazolin-8-yl)methyl)piperazin-1-yl)-3-methylbenzamide]

The next lines start with the compound.

Structure (SMILES)	IC50
CCN1C(=O)Nc2c(F)c(CN3CCN(c4ccc(C(=O)NC5CC5)nc4C)CC3)cc3ncnc1c23 [Compound I-55, N-cyclopropyl-5-(4-((3-ethyl-9-fluoro-2-oxo-2,3-dihydro-1H-pyrimido[4,5,6-de]quinazolin-8-yl)methyl)piperazin-1-yl)-6-methylpicolinamide]	≤ 10 nM
CCN1C(=O)Nc2c(F)c(CN3CCN(c4ccc(C(=O)NC5CC5)nc4C)CC3)cc3c(C)nnc1c23 [Compound I-56, N-cyclopropyl-5-(4-((9-ethyl-6-fluoro-3-methyl-8-oxo-8,9-dihydro-7H-pyridazino[3,4,5-de]quinazolin-5-yl)methyl)piperazin-1-yl)-6-methylpicolinamide]	≤ 10 nM
CCN1C(=O)Nc2c(F)c(CN3CCN(c4ccc(C(=O)NOCC5CC5)nc4C)CC3)cc3ncnc1c23 [Compound I-58, N-(cyclopropylmethoxy)-5-(4-((3-ethyl-9-fluoro-2-oxo-2,3-dihydro-1H-pyrimido[4,5,6-de]quinazolin-8-yl)methyl)piperazin-1-yl)-6-methylpicolinamide]	≤ 10 nM
CCN1C(=O)Nc2c(F)c(CN3CCN(c4ccc(C(=O)N[C@H]5C[C@H](C#N)C5)nc4C)CC3)cc3ncnc1c23 [Compound I-60, N-((1r,3r)-3-cyanocyclobutyl)-5-(4-((3-ethyl-9-fluoro-2-oxo-2,3-dihydro-1H-pyrimido[4,5,6-de]quinazolin-8-yl)methyl)piperazin-1-yl)-6-methylpicolinamide]	≤ 10 nM
CCN1C(=O)Nc2c(F)c(CN3CCN(c4ccc(C(=O)N[C@H]5C[C@@H](C#N)C5)nc4C)CC3)cc3ncnc1c23 [Compound I-65, N-((1s,3s)-3-cyanocyclobutyl)-5-(4-((3-ethyl-9-fluoro-2-oxo-2,3-dihydro-1H-pyrimido[4,5,6-de]quinazolin-8-yl)methyl)piperazin-1-yl)-6-methylpicolinamide]	≤ 10 nM
CCN1C(=O)Nc2c(F)c(CN3CCN(c4ccc(C(=O)NC5(COC)CC5)nc4C)CC3)cc3ncnc1c23 [Compound I-66, 5-(4-((3-ethyl-9-fluoro-2-oxo-2,3-dihydro-1H-pyrimido[4,5,6-de]quinazolin-8-yl)methyl)piperazin-1-yl)-N-(1-(methoxymethyl)cyclopropyl)-6-methylpicolinamide]	≤ 10 nM
CCN1C(=O)Nc2c(F)c(CN3CCN(c4ccc(C(=O)N[C@@H]5[C@@H]6COC[C@@H]65)nc4C)CC3)cc3ncnc1c23 [Compound I-69, N-((1R,5S,6s)-3-oxabicyclo[3.1.0]hexan-6-yl)-5-(4-((3-ethyl-9-fluoro-2-oxo-2,3-dihydro-1H-pyrimido[4,5,6-de]quinazolin-8-yl)methyl)piperazin-1-yl)-6-methylpicolinamide]	10 to 100 nM
CCN1C(=O)Nc2c(F)c(CN3CCN(c4ccc(C(=O)N[C@H]5CC[C@@H](C#N)CC5)nc4C)CC3)cc3ncnc1c23 [Compound I-74, N-((1s,4s)-4-cyanocyclohexyl)-5-(4-((3-ethyl-9-fluoro-2-oxo-2,3-dihydro-1H-pyrimido[4,5,6-de]quinazolin-8-yl)methyl)piperazin-1-yl)-6-methylpicolinamide]	10 to 100 nM
CCN1C(=O)Nc2c(F)c(CN3CCN(c4ccc(C(=O)N[C@H]5CC[C@H](C#N)CC5)nc4C)CC3)cc3ncnc1c23 [Compound I-75, N-((1r,4r)-4-cyanocyclohexyl)-5-(4-((3-ethyl-9-fluoro-2-oxo-2,3-dihydro-1H-pyrimido[4,5,6-de]quinazolin-8-yl)methyl)piperazin-1-yl)-6-methylpicolinamide]	10 to 100 nM
CCN1C(=O)Nc2c(F)c(CN3CCN(c4ccc(C(=O)NC5(CC#N)CC5)nc4C)CC3)cc3ncnc1c23 [Compound I-79, N-(1-(cyanomethyl)cyclopropyl)-5-(4-((3-ethyl-9-fluoro-2-oxo-2,3-dihydro-1H-pyrimido[4,5,6-de]quinazolin-8-yl)methyl)piperazin-1-yl)-6-methylpicolinamide]	≤ 10 nM
CCN1C(=O)Nc2c(F)c(CN3CCN(c4ccc(C(=O)NC5CC5)nc4C)CC3)cc3c(=O)n(C)nc1c23 [Compound I-80, N-cyclopropyl-5-(4-((9-ethyl-6-fluoro-2-methyl-3,8-dioxo-2,7,8,9-tetrahydro-3H-pyridazino[3,4,5-de]quinazolin-5-yl)methyl)piperazin-1-yl)-6-methylpicolinamide]	10 to 100 nM
CCN1C(=O)Nc2c(F)c(CN3CCN(c4ccc(C(=O)NC5CC5)cc4F)CC3)cc3ncnc1c23 [Compound I-86, N-cyclopropyl-4-(4-((3-ethyl-9-fluoro-2-oxo-2,3-dihydro-1H-pyrimido[4,5,6-de]quinazolin-8-yl)methyl)piperazin-1-yl)-3-fluorobenzamide]	10 to 100 nM
